Source: PMC4558462, “A new small molecule inhibitor of soluble guanylate cyclase” (Bioorganic & Medicinal Chemistry, 2015)
“Also recorded” adds a separate entry of the source. Where two headings read alike, the source gives them in different places.

What was measured:
[1] = biological target: T1, purified bovine lung sGC (Bos taurus, UniProt P16068+P19687); assay: Soluble guanylate cyclase activity assay (cGMP radioimmunoassay); type: biochemical; conditions: for inhibition of sGC enzyme activity (in words): discussion of Table 1
T1 construct: screened at 100 μM against purified bovine lung sGC; purchased Enzo lifesciences ALX-202-039-C005; host or cells: bovine lung
T1 sequence (P19687 1-691): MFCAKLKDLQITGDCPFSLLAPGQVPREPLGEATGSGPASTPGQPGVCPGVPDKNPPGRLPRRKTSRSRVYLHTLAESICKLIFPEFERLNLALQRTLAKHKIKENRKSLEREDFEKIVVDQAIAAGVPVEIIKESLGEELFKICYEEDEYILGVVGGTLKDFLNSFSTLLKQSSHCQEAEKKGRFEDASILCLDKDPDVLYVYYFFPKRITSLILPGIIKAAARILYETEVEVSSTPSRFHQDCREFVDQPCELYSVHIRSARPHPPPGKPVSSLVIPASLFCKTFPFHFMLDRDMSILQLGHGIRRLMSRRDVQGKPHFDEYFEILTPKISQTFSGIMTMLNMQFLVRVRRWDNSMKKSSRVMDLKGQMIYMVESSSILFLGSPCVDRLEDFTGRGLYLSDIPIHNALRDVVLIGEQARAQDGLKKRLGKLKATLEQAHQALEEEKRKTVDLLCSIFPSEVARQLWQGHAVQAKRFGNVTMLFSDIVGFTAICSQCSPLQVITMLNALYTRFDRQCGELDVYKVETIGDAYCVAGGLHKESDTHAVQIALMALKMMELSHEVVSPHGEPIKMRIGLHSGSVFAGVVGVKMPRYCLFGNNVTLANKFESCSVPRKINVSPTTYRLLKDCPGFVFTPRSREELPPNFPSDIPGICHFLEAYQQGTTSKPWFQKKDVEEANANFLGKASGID
T1 sequence (P16068 1-619): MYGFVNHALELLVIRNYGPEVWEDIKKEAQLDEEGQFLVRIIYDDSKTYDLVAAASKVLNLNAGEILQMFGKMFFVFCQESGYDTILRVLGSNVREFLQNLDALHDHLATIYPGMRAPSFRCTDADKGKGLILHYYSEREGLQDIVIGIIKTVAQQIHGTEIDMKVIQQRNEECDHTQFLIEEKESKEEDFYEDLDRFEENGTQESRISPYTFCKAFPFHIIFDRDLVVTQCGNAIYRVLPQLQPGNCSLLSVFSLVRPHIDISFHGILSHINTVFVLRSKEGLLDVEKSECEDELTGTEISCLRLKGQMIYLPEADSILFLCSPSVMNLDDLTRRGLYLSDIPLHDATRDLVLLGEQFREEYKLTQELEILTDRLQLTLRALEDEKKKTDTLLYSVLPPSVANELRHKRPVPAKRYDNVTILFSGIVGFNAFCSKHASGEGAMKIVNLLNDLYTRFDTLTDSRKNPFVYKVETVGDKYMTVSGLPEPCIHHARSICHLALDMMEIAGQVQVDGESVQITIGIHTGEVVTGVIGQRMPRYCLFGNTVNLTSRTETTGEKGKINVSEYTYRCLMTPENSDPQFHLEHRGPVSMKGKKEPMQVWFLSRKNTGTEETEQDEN
Description: Virtual screening was performed by similarity searches using MACCS fingerprints at 85% and 75% Tanimoto of commercial libraries and the selected compounds were screened at 100 μM against purified bovine lung sGC using diethylamine NONOate (30 nM) as the NO donor. Enzyme activity was determined by measuring cGMP production using a standard cGMP [^3H] radioimmunoassay.[21,22]
[…] Compounds were added at 100 μM prior to adding the NO donor DEA/NO (30 nM) or clamped NO concentrations. cGMP generation was allowed to proceed for two minutes, after which aliquots were withdrawn and inactivated by boiling in 50 mM Tris, 4 mM EDTA buffer. cGMP formation was measured by a standard radioimmunoassay.

[2] = biological target: T2, sGCcat (Homo sapiens, UniProt Q02108+Q02153); assay: SPR binding to catalytic domain of sGC; conditions: for sGCcat (SPR) binding norm. resp. (RU): Biacore T200, 25 °C; for binding to sGCcat (in words): discussion of Table 1
T2 construct: a smaller construct of the catalytic domain (sGCcat)
T2 sequence (Q02108 481-608 limits assumed): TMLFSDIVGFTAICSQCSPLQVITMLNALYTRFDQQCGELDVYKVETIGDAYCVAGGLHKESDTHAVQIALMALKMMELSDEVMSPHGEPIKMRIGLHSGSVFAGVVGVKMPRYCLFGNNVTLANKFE
T2 sequence (Q02153 421-554 limits assumed): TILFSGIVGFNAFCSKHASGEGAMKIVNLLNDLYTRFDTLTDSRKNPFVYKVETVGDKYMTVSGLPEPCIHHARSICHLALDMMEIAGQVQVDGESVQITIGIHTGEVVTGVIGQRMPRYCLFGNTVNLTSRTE
Description: We have previously described a surface plasmon resonance-based assay for the detection of binding of small molecules to full-length sGC and a smaller construct of the catalytic domain (sGCcat).[24] This assay was used to measure the binding of the compounds to sGCcat.[24] […] The position of the hydroxyl group can be changed whilst retaining binding strength and activity.
Surface plasmon resonance (SPR) experiments were performed with a Biacore T200 instrument at 25 °C. Data processing and analysis were performed using BIAevaluation software and Scrubber2. All sensorgrams were double referenced by subtracting the response in a reference flowcell and a blank sample. Materials and methods used were the same as previously published.[24]

[3] = synthesised analogues, 100 μM, read-out: sGC activity% inhibition at 100 μM
[4] = virtual screening hits, 100 μM compound, diethylamine NONOate 30 nM as NO donor, read-out: % inhibition of sGC activity at 100 μM compound
[5] = read-out: % inhibition of sGC activity at 100 μM compound

Row | inhibition at 100 µM [1, 4] | Compound | inhibition at 100 µM [1, 3] | sGCcat (SPR) binding norm. resp. (RU) [2] | binding to sGCcat (in words) [2] | inhibition of sGC enzyme activity (in words) [1] | inhibition at 100 µM [1, 5]
1 |  | O=[N+]([O-])c1ccc2nc(Nc3cccc(O)c3)c(Nc3cccc(O)c3)nc2c1 [Compound 14, 3,3′-((6-Nitroquinoxaline-2,3-diyl)bis(azanediyl))diphenol] | 41.4% | 11.6 ± 0.8 RU | higher binding |  | 
2 |  | Oc1ccc(Nc2nc3ccc(C(F)(F)F)cc3nc2Nc2ccc(O)cc2)cc1 [Compound 21, 4,4′-((6-(Trifluoromethyl)quinoxaline-2,3-diyl)bis(azanediyl))diphenol] | 44.4% | 6.4 ± 0.5 RU | higher binding |  | 
3 |  | Oc1ccc(Nc2nc3ccc(Cl)cc3nc2Nc2ccc(O)cc2)cc1 [Compound 25, 4,4′-((6-Chloroquinoxaline-2,3-diyl)bis(azanediyl))diphenol] |  | 9.7 ± 0.5 RU | bind to the receptor | do not inhibit the enzyme activity | 
4 |  | Oc1cccc(Nc2nc3ccc(C(F)(F)F)cc3nc2Nc2cccc(O)c2)c1 [Compound 22, 3,3′-((6-(Trifluoromethyl)quinoxaline-2,3-diyl)bis(azanediyl))diphenol] | 21.1% | 3.0 ± 0.5 RU |  |  | 
5 |  | Oc1cccc(Nc2nc3ccc(Cl)cc3nc2Nc2cccc(O)c2)c1 [Compound 26, 3,3′-((6-Chloroquinoxaline-2,3-diyl)bis(azanediyl))diphenol] |  | 9.0 ± 0.4 RU | bind to the receptor | do not inhibit the enzyme activity | 
6 | 51% | Clc1cccc(Nc2ncnc3ccccc23)c1Cl [Compound 5] |  |  |  |  | 
7 |  | O=[N+]([O-])c1ccc2nc(Nc3ccccc3)c(Nc3ccccc3)nc2c1 [Compound 16, 6-Nitro-N2,N3-diphenylquinoxaline-2,3-diamine] |  | 2.6 ± 0.2 RU |  |  | 
8 |  | Nc1ccc2nc(Nc3ccc(O)cc3)c(Nc3ccc(O)cc3)nc2c1 [Compound 29, 4,4′-((6-Aminoquinoxaline-2,3-diyl)bis(azanediyl))diphenol] |  | 9.9 ± 0.2 RU | higher binding; also recorded: bind to the receptor | do not inhibit the enzyme activity | 
9 |  | O=[N+]([O-])c1ccccc1Nc1nc2nonc2nc1Nc1ccccc1[N+](=O)[O-] [Compound 8] |  |  |  |  | 90%
10 |  | CC(=O)c1ccc(Nc2nc3cc([N+](=O)[O-])c([N+](=O)[O-])cc3nc2Nc2cccc(C(C)=O)c2)cc1 [Compound 9] |  |  |  |  | 73%
11 |  | CNC(=O)c1ccc2nc(Nc3ccc(O)cc3)c(Nc3ccc(O)cc3)nc2c1 [Compound 27, 2,3-Bis((4-hydroxyphenyl)amino)-N-methylquinoxaline-6-carboxamide] |  | 1.1 ± 0.3 RU |  |  | 
12 |  | 6,7-Bis((3-hydroxyphenyl)amino)-N-methyl-2-naphthamide [Compound 28] |  | 9.6 ± 0.3 RU | higher binding |  | 
13 |  | CC(=O)Nc1cccc(Nc2nc3ccc([N+](=O)[O-])cc3nc2Nc2cccc(NC(C)=O)c2)c1 [Compound 18, N,N′-(((6-Nitroquinoxaline-2,3-diyl)bis(azanediyl))bis(3,1-phenylene))diacetamide] |  | 3.0 ± 1.0 RU | reduced its binding strength | biochemically inactive | 
14 |  | Oc1ccc(Nc2nc3ccccc3nc2Nc2ccc(O)cc2)cc1 [Compound 20, 4,4′-(Quinoxaline-2,3-diylbis(azanediyl))diphenol] |  | 12.4 ± 0.1 RU | higher binding; also recorded: only a small decrease in binding | no significant inhibition | 
15 |  | COc1ccc(Nc2nc3ccc([N+](=O)[O-])cc3nc2Nc2ccc(OC)cc2)cc1 [Compound 15, N2,N3-Bis(4-methoxyphenyl)-6-nitroquinoxaline-2,3-diamine] |  | 1.0 ± 0.3 RU | reduced its binding strength | biochemically inactive | 
16 |  | O=[N+]([O-])c1ccc2nc(Nc3ccc(F)cc3)c(Nc3ccc(F)cc3)nc2c1 [Compound 19, N2,N3-Bis(4-fluorophenyl)-6-nitroquinoxaline-2,3-diamine] |  | 1.9 ± 1.8 RU | reduced its binding strength | biochemically inactive | 
17 | 90% | Fc1cccc(Nc2nc3nonc3nc2Nc2cccc(F)c2)c1 [Compound 7] |  |  |  |  | 
18 |  | N#Cc1ccc2nc(Nc3cccc(O)c3)c(Nc3cccc(O)c3)nc2c1 [Compound 24, 2,3-Bis((3-hydroxyphenyl)amino)quinoxaline-6-carbonitrile] |  | 10.5 ± 0.5 RU | bind to the receptor | do not inhibit the enzyme activity | 
19 | 51% | N#Cc1cc(Nc2cccc(Cl)c2)c(Nc2cccc(Cl)c2)cc1C#N [Compound 6] |  |  |  |  | 
20 |  | N#Cc1ccc2nc(Nc3ccc(O)cc3)c(Nc3ccc(O)cc3)nc2c1 [Compound 23, 2,3-Bis((4-hydroxyphenyl)amino)quinoxaline-6-carbonitrile] |  | 4.5 ± 2 RU | bind to the receptor | do not inhibit the enzyme activity | 
21 |  | CC(=O)Nc1ccc(Nc2nc3ccc([N+](=O)[O-])cc3nc2Nc2ccc(NC(C)=O)cc2)cc1 [Compound 17, N,N′-(((6-Nitroquinoxaline-2,3-diyl)bis(azanediyl))bis(4,1-phenylene))diacetamide] |  | 0.8 ± 0.3 RU | reduced its binding strength | biochemically inactive | 
